pEC50: −log10 of the molar value.
Assays:
human GR [1] = biological target: T1, human GR (Homo sapiens, UniProt P04150); assay: Trans-Activation Modulation of Glucocorticoid Receptor (GRAMMER), MMTV-LUC reporter, agonist mode; format: cell-based; parameters: endogenous in cells; details: for Emax: A549, A549 cells, maximum activity, read-out: Transactivation A549 Cells GRAMMER Emax; for pEC50: A549 cells, inflection point, read-out: Transactivation A549 Cells GRAMMER IP
T1 sequence (P04150 1-777): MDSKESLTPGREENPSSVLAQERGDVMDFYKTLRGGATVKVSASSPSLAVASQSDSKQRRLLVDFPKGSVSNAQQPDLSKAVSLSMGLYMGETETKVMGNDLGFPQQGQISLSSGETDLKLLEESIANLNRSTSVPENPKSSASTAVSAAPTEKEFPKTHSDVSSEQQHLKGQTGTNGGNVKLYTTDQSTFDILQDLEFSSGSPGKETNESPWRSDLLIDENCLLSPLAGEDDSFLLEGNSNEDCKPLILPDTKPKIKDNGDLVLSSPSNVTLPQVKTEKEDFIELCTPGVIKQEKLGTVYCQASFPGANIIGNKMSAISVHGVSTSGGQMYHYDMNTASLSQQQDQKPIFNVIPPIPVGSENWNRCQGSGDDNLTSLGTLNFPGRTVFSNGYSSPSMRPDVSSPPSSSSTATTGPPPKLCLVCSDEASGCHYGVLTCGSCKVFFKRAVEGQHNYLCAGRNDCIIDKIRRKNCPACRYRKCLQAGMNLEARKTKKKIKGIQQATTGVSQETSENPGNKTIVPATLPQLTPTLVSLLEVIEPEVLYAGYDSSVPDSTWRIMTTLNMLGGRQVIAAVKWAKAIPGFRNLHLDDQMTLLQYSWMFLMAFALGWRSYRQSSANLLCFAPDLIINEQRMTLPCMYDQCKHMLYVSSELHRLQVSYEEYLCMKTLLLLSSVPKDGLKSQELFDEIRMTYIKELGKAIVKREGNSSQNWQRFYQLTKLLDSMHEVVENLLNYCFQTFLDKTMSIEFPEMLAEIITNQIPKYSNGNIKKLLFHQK
Source text: This assay assesses the ability of test compounds to control transcription from the MMTV-LUC reporter gene in lung adenocarcinoma A549 cells or MDA-MB-453 cells, a human breast cancer cell line that naturally expresses the human GR. The assay measures induction of a modified MMTV LTR/promoter linked to the LUC reporter gene.
The routine transient assay consists of plating 7,000-25,000 cells/well of a white, clear-bottom 96-well plate. Alternatively, 384-well plates can be used at a cell concentration of 10,000/well. The media that the cells are plated in is “exponential growth medium” which consists of phenol red-free RPMI1640 containing 10% FBS, 4 mM L-glutamine, 20 mM HEPES, 10 ug/mL human insulin, and 20 ug/mL gentamicin. Incubator conditions are 37° C. and 5% CO2. The transfection is done in batch mode. The cells are trypsinized and counted to the right cell number in the proper amount of fresh media. It is then gently mixed with the FuGene6/DNA mix and plated onto the 96 or 384-well plate, all the wells receive 100 uL or 40 uL, respectively, of medium+lipid/DNA complex then incubated 37° C. overnight. The transfection cocktail consists of serum-free OptiMEM, FuGene6 reagent and DNA. The manufacturer's (Roche Biochemical) protocol for cocktail setup is as follows: The lipid to DNA ratio is approximately 2.5:1 and the incubation time is 20 min at room temperature. Sixteen to 24 hours after transfection, the cells are treated with dexamethasone to a final concentration of 10 nM as well as the compound of interest, such that final DMSO (vehicle) concentration is equal to or less than 1%. Each plate also contains samples that are treated with 10 nM dexamethasone alone, which is used as the 100% activity control. The cells are exposed to the compounds for 24 hours. After 24 hours, the cells are lysed by a Promega cell culture lysis buffer for approximately 30 min and then the luciferase activity in the extracts is assayed in the 96-well format luminometer. In 384-well format, Steady-Glo (Promega) or Steady-Lite (PerkinElmer) can be used by adding an equal volume of reagent to the media present in each well. Activity induced by 10 nM dexamethasone alone is set at 100% activity. Antagonist activity is calculated by determining the decrease in dexamethasone-induced activity in response to compound treatment relative to samples that were treated with dexamethasone alone. […] This transactivation assay can be performed in an agonist and antagonist mode to identify these different activities.

human GR [2] = biological target: T1, human GR; assay: Transrepression Assay (GITAR), TNFα-β-lactamase reporter in U937 cells; format: cell-based; parameters: U937 cells contain an endogenous glucocorticoid receptor (GR); endogenous in cells; host or cells: U937 cells stably transfected with the TNF-alpha promoter/beta-lactamase reporter; details: for GITAR > GRAMM % SEP: GITAR Emax minus GRAMMER Emax; for pEC50: U937 cells, inflection point, read-out: Transrepression U937 Cells GITAR IP
Source text: This assay assesses the ability of test compounds to control transcription from the TNFα-β-lactamase reporter gene in U937 cells, a human myelomonocytic leukemia cell line that naturally expresses the human GR. The assay measures compound dependent-repression of the TNFa promoter linked to a reporter gene.
The human U937 cells that had been stablely transfected with the TNF-α promoter driving β-lactamase are used for this assay. U937 cells contain an endogenous glucocorticoid receptor (GR). Cells are maintained in RPMI 1640 Growth medium (Gibco Cat#11875-093) containing 25 mM HEPES, 10% FBS, 2 mM L-Glutamine, 1 mM Sodium pyruvate, 25 μg/ml Gentamicin (Gibco Cat#15710-064), 1:1000 2-Mercaptoethanol (Gibco Cat#21985-023) and 0.8 mg/ml G418 (Gibco Cat#10131-027). The density of the cells in the flask needs to be about 1×10^6−3×10^6/ml at the time of harvest. Usually, the cells are split to 1.2˜1.4×10^5/ml (1:10) 3 days prior to the assay. 50,000 cells/well are plated in 96 well black-walled plates the day of assay. Test compounds are added 10 μL/well, and cells are incubated at 37° C. for 30˜45 min. For assaying compounds, first dilute 1:10 in DMSO to make 1 mM, then further dilute 1:100 in medium to make 10× stock prior to adding to the cells. Add 50 ng/mlPMA (Sigma, cat# P8139) 10 μL/well to a final concentration 5 ng/ml, and 1 μg/ml LPS (Sigma, cat# L4130) 10 μL/well to a final concentration 100 ng/ml. Incubate cells at 37° C. overnight for ˜18 hr. PMA is stored frozen as 100 μg/ml stock in DMSO. Dilute 1:10 in DMSO for a working stock of 10 μg/ml and store at −20 C. For assaying, dilute the 10 μg/ml working stock 1:200 in medium to make a 10× solution (50 ng/ml). Store frozen LPS at 1 mg/ml in PBS, dilute 1:1000 in medium to make 10× (1 μg/ml) for the assay. Add 6× loading buffer (CCF2-AM) 20 μL/well, and incubate at room temperature for 70˜90 min. […] The activity repressed by 100 nM dexamethasone alone is set as 100% activity.

[3] = U-937, U937 cells, maximum activity, read-out: Transrepression U937 Cells GITAR Emax
[4] = U-937, activity repressed by 100 nM dexamethasone alone set as 100%, read-out: maximal activity in the transrepression (GITAR) assay

C[C@]12Cc3cnn(-c4ccc(F)cc4)c3C=C1CC[C@@H]2CN(CC1CC1)S(=O)(=O)c1cc(C(F)(F)F)ccc1Cl [Example 5, 2-chloro-N-(cyclopropylmethyl)-N-{[(4αR,5S)-1-(4-fluorophenyl)-4α-methyl-1,4,4α,5,6,7-hexahydrocyclopenta[f]indazol-5-yl]methyl}-5-(trifluoromethyl)benzenesulfonamide]
Emax (human GR [1]): 2.9% | pEC50 (human GR [1]): 6.38 | GITAR > GRAMM % SEP (human GR [2]): 16.2% | pEC50 (human GR [2]): 6.65 | Emax (human GR [2]; [3]): 19.2% | Emax (human GR [2]; [4]): > 5%

CC(=O)Nc1ccc(S(=O)(=O)N(CC2CC2)C[C@H]2CCC3=Cc4c(cnn4-c4ccc(F)cc4)C[C@@]32C)cc1 [Example 6, N-{4-[((cyclopropylmethyl){[(4αR,5S)-1-(4-fluorophenyl)-4α-methyl-1,4,4α,5,6,7-hexahydrocyclopenta[f]indazol-5-yl]methyl}amino)sulfonyl]phenyl}acetamide]
Emax (human GR [1]): 13% | pEC50 (human GR [1]): 6.40 | GITAR > GRAMM % SEP (human GR [2]): 36.0% | pEC50 (human GR [2]): 6.00 | Emax (human GR [2]; [3]): 49% | Emax (human GR [2]; [4]): > 5%

Cc1nn(C)c(Cl)c1S(=O)(=O)N(CC1CC1)C[C@H]1CCC2=Cc3c(cnn3-c3ccc(F)cc3)C[C@@]21C [Example 7]
Emax (human GR [1]): 36.3% | pEC50 (human GR [1]): 6.45 | GITAR > GRAMM % SEP (human GR [2]): 19.7% | pEC50 (human GR [2]): 6.41 | Emax (human GR [2]; [3]): 56% | Emax (human GR [2]; [4]): > 5%

CN1CCOc2cc(S(=O)(=O)N(CC3CC3)C[C@H]3CCC4=Cc5c(cnn5-c5ccc(F)cc5)C[C@@]43C)ccc21 [Example 8, N-(cyclopropylmethyl)-N-{[(4αR,5S)-1-(4-fluorophenyl)-4α-methyl-1,4,4α,5,6,7-hexahydrocyclopenta[f]indazol-5-yl]methyl}-4-methyl-3,4-dihydro-2H-1,4-benzoxazine-7-sulfonamide]
Emax (human GR [1]): 4.9% | pEC50 (human GR [1]): 7.43 | GITAR > GRAMM % SEP (human GR [2]): 12.4% | pEC50 (human GR [2]): 6.37 | Emax (human GR [2]; [3]): 17.4% | Emax (human GR [2]; [4]): > 5%

CCCCCc1ccc(S(=O)(=O)N(CC2CC2)C[C@H]2CCC3=Cc4c(cnn4-c4ccc(F)cc4)C[C@@]32C)cc1 [Example 9, N-(cyclopropylmethyl)-N-{[(4αR,5S)-1-(4-fluorophenyl)-4α-methyl-1,4,4α,5,6,7-hexahydrocyclopenta[f]indazol-5-yl]methyl}-4-pentylbenzenesulfonamide]
Emax (human GR [1]): 12.7% | pEC50 (human GR [1]): 5.95 | GITAR > GRAMM % SEP (human GR [2]): 15.4% | pEC50 (human GR [2]): 6.02 | Emax (human GR [2]; [3]): 28.1% | Emax (human GR [2]; [4]): > 5%

C[C@]12Cc3cnn(-c4ccc(F)cc4)c3C=C1CC[C@@H]2CN(CC1CC1)S(=O)(=O)c1ccc(-c2ccccc2)cc1 [Example 10, N-(cyclopropylmethyl)-N-{[(4αR,5S)-1-(4-fluorophenyl)-4α-methyl-1,4,4α,5,6,7-hexahydrocyclopenta[f]indazol-5-yl]methyl}biphenyl-4-sulfonamide]
Emax (human GR [1]): 12.3% | pEC50 (human GR [1]): 6.21 | GITAR > GRAMM % SEP (human GR [2]): 34.4% | pEC50 (human GR [2]): 6.33 | Emax (human GR [2]; [3]): 46.6% | Emax (human GR [2]; [4]): > 5%

Cc1noc(C)c1S(=O)(=O)N(CC1CC1)C[C@H]1CCC2=Cc3c(cnn3-c3ccc(F)cc3)C[C@@]21C [Example 11, N-(cyclopropylmethyl)-N-{[(4αR,5S)-1-(4-fluorophenyl)-4α-methyl-1,4,4α,5,6,7-hexahydrocyclopenta[f]indazol-5-yl]methyl}-3,5-dimethylisoxazole-4-sulfonamide]
Emax (human GR [1]): 66% | pEC50 (human GR [1]): 6.63 | GITAR > GRAMM % SEP (human GR [2]): 23.1% | pEC50 (human GR [2]): 6.69 | Emax (human GR [2]; [3]): 89.1% | Emax (human GR [2]; [4]): > 5%

CCCS(=O)(=O)N(CCOC)C[C@H]1CCC2=Cc3c(cnn3-c3ccc(F)cc3)C[C@@]21C [Example 95, N-{[(4αR,5S)-1-(4-fluorophenyl)-4α-methyl-1,4,4α,5,6,7-hexahydrocyclopenta[f]indazol-5-yl]methyl}-N-(2-methoxyethyl)propane-1-sulfonamide]
Emax (human GR [1]): 70.4% | pEC50 (human GR [1]): 6.25 | GITAR > GRAMM % SEP (human GR [2]): 2.7% | pEC50 (human GR [2]): 6.33 | Emax (human GR [2]; [3]): 73.1% | Emax (human GR [2]; [4]): > 5%

COCCN(C[C@H]1CCC2=Cc3c(cnn3-c3ccc(F)cc3)C[C@@]21C)S(C)(=O)=O [Example 96, N-{[(4αR,5S)-1-(4-fluorophenyl)-4α-methyl-1,4,4α,5,6,7-hexahydrocyclopenta[f]indazol-5-yl]methyl}-N-(2-methoxyethyl)methanesulfonamide]
Emax (human GR [1]): 65.7% | pEC50 (human GR [1]): 6.82 | GITAR > GRAMM % SEP (human GR [2]): 19.3% | pEC50 (human GR [2]): 6.91 | Emax (human GR [2]; [3]): 85% | Emax (human GR [2]; [4]): > 5%

COCCN(C[C@H]1CCC2=Cc3c(cnn3-c3ccc(F)cc3)C[C@@]21C)S(=O)(=O)CC(F)(F)F [Example 97, 2,2,2-trifluoro-N-{[(4αR,5S)-1-(4-fluorophenyl)-4α-methyl-1,4,4α,5,6,7-hexahydrocyclopenta[f]indazol-5-yl]methyl}-N-(2-methoxyethyl)ethanesulfonamide]
Emax (human GR [1]): 83.8% | pEC50 (human GR [1]): 7.31 | GITAR > GRAMM % SEP (human GR [2]): 2.2% | pEC50 (human GR [2]): 7.31 | Emax (human GR [2]; [3]): 85.9% | Emax (human GR [2]; [4]): > 5%

Source: patent US8299048B2, “Hexahydrocyclopentyl[f]indazole sulfonamides and derivatives thereof as selective glucocorticoid receptor modulators” (Merck Sharp & Dohme Corp., priority 2008, dated 2012)
